Assay results as given in patent publication US11008323B2, “Substituted tricyclic 1,4-benzodiazepinone derivatives as allosteric modulators of group II metabotropic glutamate receptors” (Domain Therapeutics, priority 2015, dated 2021).
Counter-ions that a name gives are not always drawn.

target: T1, human mGluR3 (hmGluR3) (Homo sapiens, UniProt Q14832); experiment: Human mGluR3 positive allosteric modulator evaluation using Ca++ functional assay; type: cell-based; conditions: hmGluR3 transiently over-expressed in HEK-293 cells; stimulated by EC50 glutamate concentration; intracellular Ca2+ (Fluo4AM, FLIPR Tetra)
T1 construct: expressed in transfected cells; host or cells: HEK-293 cells, transient co-transfection by electroporation
Summary of the method: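 HEK-293 cells transiently co-expressing hmGluR3, a chimeric G protein and two glutamate transporters; Fluo4 calcium read on FLIPR. Compound alone for 10 min (agonist), then EC50 glutamate for 3 min (PAM); 20-point curves gave EC50, duplicate, two independent runs.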

T1 sequence (Q14832 23-879): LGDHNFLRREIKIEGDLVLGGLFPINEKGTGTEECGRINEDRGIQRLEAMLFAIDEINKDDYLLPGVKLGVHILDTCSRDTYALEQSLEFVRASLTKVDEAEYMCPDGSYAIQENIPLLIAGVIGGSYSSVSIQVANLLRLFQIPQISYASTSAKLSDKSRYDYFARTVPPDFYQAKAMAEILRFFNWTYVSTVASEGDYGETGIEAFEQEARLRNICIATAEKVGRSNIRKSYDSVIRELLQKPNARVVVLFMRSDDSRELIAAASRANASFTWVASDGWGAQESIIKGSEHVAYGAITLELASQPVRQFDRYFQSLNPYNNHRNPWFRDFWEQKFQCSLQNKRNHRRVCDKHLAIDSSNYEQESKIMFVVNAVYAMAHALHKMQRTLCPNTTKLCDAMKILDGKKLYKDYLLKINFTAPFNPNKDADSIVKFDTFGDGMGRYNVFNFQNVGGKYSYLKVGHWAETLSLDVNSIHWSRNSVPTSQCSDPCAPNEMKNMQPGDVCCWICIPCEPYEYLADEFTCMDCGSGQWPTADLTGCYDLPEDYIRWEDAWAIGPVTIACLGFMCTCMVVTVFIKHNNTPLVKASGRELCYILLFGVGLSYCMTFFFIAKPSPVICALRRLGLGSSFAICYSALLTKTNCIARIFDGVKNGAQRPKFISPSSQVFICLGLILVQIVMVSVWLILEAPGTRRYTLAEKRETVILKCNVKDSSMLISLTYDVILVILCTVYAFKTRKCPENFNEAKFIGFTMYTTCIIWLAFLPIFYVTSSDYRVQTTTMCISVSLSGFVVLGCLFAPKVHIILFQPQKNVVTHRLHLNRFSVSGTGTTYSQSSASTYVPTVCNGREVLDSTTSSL

SMILES | EC50
Cc1ccc(-c2ccc3c(c2)-n2cc(CO)cc2C(=O)N(C)C32CC2)cn1 [Example 202] | < 100 nM
CN1C(=O)c2cccn2-c2c(ccc(-c3ccc(F)nc3)c2F)C12CC2 [Example 76, 10-Fluoro-5-Methyl-9-(6-fluoro-pyridin-3-yl)-spiro[benzo[f]pyrrolo[1,2-a][1,4]diazepine-6,1′-cyclopropan]-4(5H)-one] | < 100 nM
Cc1ncccc1-c1ccc2c(c1)-n1cc(C#N)cc1C(=O)N(C)C21CC1 [Example 153] | 100 to 1000 nM
Cc1ccc2c(c1)C1(CC1)N(C)C(=O)c1cccn1-2 [Example 87, 5,8-Dimethyl-spiro[benzo[f]pyrrolo[1,2-a][1,4]diazepine-6,1′-cyclopropan]-4(5H)-one] | > 1000 nM

The remaining lines, values ahead:

EC50 | SMILES
100 to 1000 nM | COc1ccc(-c2ccc3c(c2)-n2cccc2C(=O)N(C)C32CC2)cc1OC [Example 39, 5-Methyl-9-(3,4-dimethoxy-phenyl)-spiro[benzo[f]pyrrolo[1,2-a][1,4]diazepine-6,1′-cyclopropan]-4(5H)-one]
> 1000 nM | CN1C(=O)c2cccn2-c2c(C#N)cccc2C12CC2 [Example 91, 10-Cyano-5-methyl-spiro[benzo[f]pyrrolo[1,2-a][1,4]diazepine-6,1′-cyclopropan]-4(5H)-one]

system: not given; experiment: not given; conditions: not given

SMILES | melting point
Cc1ccc(-c2ccc3c(c2)-n2cc(CO)cc2C(=O)N(C)C32CC2)cn1 [Example 202] | 144 to 154 °C
CN1C(=O)c2cccn2-c2c(ccc(-c3ccc(F)nc3)c2F)C12CC2 [Example 76, 10-Fluoro-5-Methyl-9-(6-fluoro-pyridin-3-yl)-spiro[benzo[f]pyrrolo[1,2-a][1,4]diazepine-6,1′-cyclopropan]-4(5H)-one] | 153 to 157 °C
Cc1ncccc1-c1ccc2c(c1)-n1cc(C#N)cc1C(=O)N(C)C21CC1 [Example 153] | > 250 °C
Cc1ccc2c(c1)C1(CC1)N(C)C(=O)c1cccn1-2 [Example 87, 5,8-Dimethyl-spiro[benzo[f]pyrrolo[1,2-a][1,4]diazepine-6,1′-cyclopropan]-4(5H)-one] | 143 to 150 °C
CN(C)c1ccc2c(c1)-n1cc(-c3ccccc3)cc1C(=O)N(C)C21CC1 (as salt: hydrochloride) [Example 115, 9-Dimethylamino-5-methyl-2-phenyl-spiro[benzo[f]pyrrolo[1,2-a][1,4]diazepine-6,1′-cyclopropan]-4(5H)-one] | 160 to 170 °C
CN1C(=O)c2cc(-c3ccccc3)cn2-c2cc(-c3cncnc3)ccc2C12CC2 (as salt: hydrochloride) [Example 104, 5-Methyl-2-phenyl-9-(pyrimidin-5-yl)-spiro[benzo[f]pyrrolo[1,2-a][1,4]diazepine-6,1′-cyclopropan]-4(5H)-one] | 168 to 173 °C
Cc1cc(-c2ccc3c(c2)-n2cc(-c4ccccc4)cc2C(=O)N(C)C32CC2)cc(C)n1 (as salt: hydrochloride) [Example 97, 5-Methyl-2-phenyl-9-(2,6-dimethyl-pyridin-4-yl)-spiro[benzo[f]pyrrolo[1,2-a][1,4]diazepine-6,1′-cyclopropan]-4(5H)-one] | 227 to 234 °C
Cc1nccnc1-c1ccc2c(c1)-n1cccc1C(=O)N(C)C21CC1 (as salt: hydrochloride) [Example 58, 5-Methyl-9-(3-methyl-pyrazin-2-yl)-5,6-spiro[benzo[f]pyrrolo[1,2-a][1,4]diazepine-6,1′-cyclopropan]-4(5H)-one] | 123 to 129 °C
CN1C(=O)c2cccn2-c2cc(-c3cnc(N)c(C(F)(F)F)c3)ccc2C12CC2 (as salt: hydrochloride) [Example 40, 5-Methyl-9-(6-amino-5-trifluoromethyl-pyridin-3-yl)-spiro[benzo[f]pyrrolo[1,2-a][1,4]diazepine-6,1′-cyclopropan]-4(5H)-one] | > 250 °C
Cc1ncccc1-c1ccc2c(c1)-n1cc(N(C)C)cc1C(=O)N(C)C21CC1 (as salt: hydrochloride) [Example 154] | 120 to 134 °C
Cc1ncccc1-c1ccc2c(c1)-n1cccc1C(=O)N(C)C2C (stereo not drawn) (as salt: hydrochloride) [Example 218, 5,6-Dimethyl-9-(2-methyl-pyridin-3-yl)-5,6-dihydro-benzo[f]pyrrolo[1,2-a][1,4]diazepin-4-one] | 140 to 156 °C
Cc1ncccc1-c1ccc2c(c1)-n1cc(-c3cccnc3)cc1C(=O)N(C)C21CC1 (as salt: hydrochloride) [Example 143] | > 250 °C
CCc1ncccc1-c1ccc2c(c1)-n1cc(CO)cc1C(=O)N(C)C21CC1 (as salt: hydrochloride) [Example 203] | > 250 °C
Cc1ncccc1-c1ccc2c(c1)-n1cc(-c3cc[nH]n3)cc1C(=O)N(C)C21CC1 (as salt: hydrochloride) [Example 146] | 240 to 250 °C
CN1C(=O)c2cc(-c3ccccc3)nn2-c2cc(-c3ccc(N)nc3)ccc2C12CC2 (as salt: hydrochloride) [Example 127, 9-(6-Amino-pyridin-3-yl)-5-methyl-2-phenyl-spiro[benzo[f]pyrazolo[1,5-a][1,4]diazepine-6,1′-cyclopropan]-4(5H)-one] | > 250 °C

Next, values leading:

melting point | SMILES
150 to 154 °C | COc1ccc(-c2ccc3c(c2)-n2cccc2C(=O)N(C)C32CC2)cc1OC [Example 39, 5-Methyl-9-(3,4-dimethoxy-phenyl)-spiro[benzo[f]pyrrolo[1,2-a][1,4]diazepine-6,1′-cyclopropan]-4(5H)-one]
250 °C | CN1C(=O)c2cccn2-c2c(C#N)cccc2C12CC2 [Example 91, 10-Cyano-5-methyl-spiro[benzo[f]pyrrolo[1,2-a][1,4]diazepine-6,1′-cyclopropan]-4(5H)-one]
> 250 °C | Cc1cc(-c2ccc3c(c2)-n2nc(-c4ccccc4)cc2C(=O)N(C)C32CC2)cc(C)n1 (as salt: hydrochloride) [Example 121, 9-(2,6-Dimethyl-pyridin-4-yl)-5-methyl-2-phenyl-spiro[benzo[f]pyrazolo[1,5-a][1,4]diazepine-6,1′-cyclopropan]-4(5H)-one]
> 250 °C | Cc1ncccc1-c1ccc2c(c1)-n1cc(-c3ccncc3)cc1C(=O)N(C)C21CC1 (as salt: hydrochloride) [Example 145]
> 250 °C | CN1C(=O)c2cccn2-c2cc(-c3ccncc3)ccc2C12CC2 (as salt: hydrochloride) [Example 22, 5-Methyl-9-(pyridin-4-yl)-spiro[benzo[f]pyrrolo[1,2-a][1,4]diazepine-6,1′-cyclopropan]-4(5H)-one]
158 to 170 °C | Cc1ncccc1-c1ccc2c(c1)-n1cncc1C(=O)N(C)C2 (as salt: hydrochloride) [Example 215, 5-Methyl-9-(2-methylpyridin-3-yl)-5,6-dihydro-4H-benzo[f]imidazo[1,5-a][1,4]diazepin-4-one]
> 250 °C | CN1C(=O)c2cccn2-c2cc(-c3ccc4nccn4c3)ccc2C12CC2 (as salt: hydrochloride) [Example 41, 5-Methyl-9-(imidazo[1,2-a]pyridin-6-yl)-spiro[benzo[f]pyrrolo[1,2-a][1,4]diazepine-6,1′-cyclopropan]-4(5H)-one]
188 to 193 °C | CN1C(=O)c2cccn2-c2cc(-c3ccc(N4CCCCC4)nc3)ccc2C12CC2 (as salt: hydrochloride) [Example 43, 5-Methyl-9-(3,4,5,6-tetrahydro-2H-[1,2′]bipyridinyl-5′-yl)-spiro[benzo[f]pyrrolo[1,2-a][1,4]diazepine-6,1′-cyclopropan]-4(5H)-one]
200 to 220 °C | CC(=O)c1cc2n(c1)-c1cc(-c3cccnc3C)ccc1C1(CC1)N(C)C2=O (as salt: hydrochloride) [Example 195]
160 to 170 °C | CCC1c2ccc(-c3cccnc3C)cc2-n2cccc2C(=O)N1C (stereo not drawn) (as salt: hydrochloride) [Example 220, 6-Ethyl-5-methyl-9-(2-methyl-pyridin-3-yl)-5,6-dihydro-benzo[f]pyrrolo[1,2-a][1,4]diazepin-4-one]
120 to 140 °C | Cc1ncccc1-c1ccc2c(c1)-n1nccc1C(=O)N(C)C2 (as salt: hydrochloride) [Example 217, 5-Methyl-9-(2-methylpyridin-3-yl)-5,6-dihydro-4H-benzo[f]pyrazolo[1,5-a][1,4]diazepin-4-one]
200 to 208 °C | Cc1ccnc(C)c1-c1ccc2c(c1)-n1cccc1C(=O)N(C)C21CC1 (as salt: hydrochloride) [Example 65, 5-Methyl-9-(2,4-dimethylpyridin-3-yl)-spiro[benzo[f]pyrrolo[1,2-a][1,4]diazepine-6,1′-cyclopropan]-4(5H)-one]
> 250 °C | CN1C(=O)c2cc(C(=O)O)cn2-c2cc(-c3ccc(F)nc3)ccc2C12CC2 [Example 177, 5-Methyl-9-(6-fluoro-pyridin-3-yl)-4-oxo-4,5-dihydrospiro[benzo[f]pyrrolo[1,2-a][1,4]diazepine-6,1′-cyclopropane]-2-carboxylic acid]
225 to 235 °C | Cc1cc(-c2ccc3c(c2)-n2cc(-c4ccccc4)cc2C(=O)N(C)C32CC2)ccn1 (as salt: hydrochloride) [Example 105, 5-Methyl-2-phenyl-9-(2-methyl-pyridin-4-yl)-spiro[benzo[f]pyrrolo[1,2-a][1,4]diazepine-6,1′-cyclopropan]-4(5H)-one]
> 250 °C | Cc1cc(-c2ccc3c(c2)-n2nc(-c4ccccc4)cc2C(=O)N(C)C32CC2)ccn1 (as salt: hydrochloride) [Example 122, 9-(2-Methyl-pyridin-4-yl)-5-methyl-2-phenyl-spiro[benzo[f]pyrazolo[1,5-a][1,4]diazepine-6,1′-cyclopropan]-4(5H)-one]
113 to 123 °C | COCc1cc2n(c1)-c1cc(-c3ccc(C)nc3)ccc1C1(CC1)N(C)C2=O (as salt: hydrochloride) [Example 205]
179 to 184 °C | CCc1ncccc1-c1ccc2c(c1)-n1cc(C)cc1C(=O)N(C)C21CC1 (as salt: hydrochloride) [Example 199]
240 to 250 °C | Cc1ncccc1-c1ccc2c(c1)-n1cc(C(F)F)cc1C(=O)N(C)C21CC1 (as salt: hydrochloride) [Example 201]
187 to 192 °C | CCc1ncccc1-c1ccc2c(c1)-n1cc(-c3ccnn3C)cc1C(=O)N(C)C21CC1 (as salt: hydrochloride) [Example 163]
166 to 184 °C | Cc1ncccc1-c1ccc2c(c1F)-n1cccc1C(=O)N(C)C21CC1 (as salt: hydrochloride) [Example 75, 10-Fluoro-5-methyl-9-(2-methyl-pyridin-3-yl)-spiro[benzo[f]pyrrolo[1,2-a][1,4]diazepine-6,1′-cyclopropan]-4(5H)-one]
165 to 175 °C | CCc1cc2n(c1)-c1cc(-c3cccnc3C)ccc1C1(CC1)N(C)C2=O (as salt: hydrochloride) [Example 197]
